{"source": "patent US20260199213A1", "about": "“PEPTIDE HAVING ACTIVITY OF IMPROVING STATE OF SKIN, AND USE THEREOF” (CAREGEN CO., LTD., priority 2022, published 2026)", "format_in_all_cases": "cell-based", "key": {"[1]": {"tested_on": "reactive oxygen species in NIH3T3 cells", "test": "Reactive oxygen species increased by ultraviolet rays in NIH3T3 cells (DCF-DA, flow cytometry)", "settings": "fibroblasts (NIH3T3); 6 J/cm^2 UV; 10 μM, 50 μM or 1000 μM peptide; 24 hours", "description": "In this example, the aim was to confirm the effect of the peptide according to an embodiment on the antioxidant effect in damaged skin, by evaluating the change in the level of reactive oxygen species in skin cells increased by ultraviolet irradiation.\nSpecifically, NIH3T3 cells or HaCaT cells were seeded in a 6-well plate at a density of 5×10^5 cells/well and cultured for 24 hours. Next, the cells were washed once with serum-free DMEM media, and 10 μM, 50 μM or 1000 μM of the peptide consisting of the amino acid sequence of SEQ ID NO: 1 was dispensed into 1 mL of the serum-free media, and cultured in a CO2 incubator at 37° C. for 1 hour. Next, the above culture was transferred to an e-tube, mixed with 1 ml of PBS, and dispensed into a well plate. Next, using a UV irradiator (VILBER LOURMAT, Cat No.: 3102-BSU, France), 6 J/cm^2 ultraviolet rays were irradiated to NIH3T3 cells, and 15 mJ/cm^2 ultraviolet rays were irradiated to HaCaT cells. Next, the PBS in the well plate was removed, 900 μL of the culture medium in which the peptides were dispensed was added, and the plate was cultured in a CO2 incubator at 37° C. for 24 hours. […] After washing the centrifuged cells with PBS, FL1 fluorescence values were measured through flow cytometry (FACS, BD, USA). […]"}, "SIRT-1": {"tested_on": "SIRT-1", "test": "SIRT-1 expression reduced by ultraviolet rays in HaCaT cells (RT-PCR)", "settings": "15 mJ/cm^2 UV, 10 μM, 50 μM or 1000 μM peptide, 8 hours", "description": "In this example, the aim was to confirm the effect of the peptide according to an embodiment on the recovery of skin barrier factors in damaged skin cells by evaluating changes in the levels of skin barrier factors in skin cells reduced by ultraviolet irradiation.\nSpecifically, HaCaT cells were seeded in a 6-well plate at a density of 5×10^5 cells/well and cultured for 24 hours. Next, the cells were washed once with serum-free DMEM media, and 10 μM, 50 μM or 1000 μM of the peptide consisting of the amino acid sequence of SEQ ID NO: 1 was dispensed into 1 mL of the serum-free media, and cultured in a CO2 incubator at 37° C. for 1 hour. Next, the above culture was transferred to an e-tube, mixed with 1 ml of PBS, and dispensed into a well plate. Next, using a UV irradiator (VILBER LOURMAT, Cat No.: 3102-BSU, France), 15 mJ/cm^2 ultraviolet rays were irradiated to the HaCaT cells. Next, the PBS in the well plate was removed, 900 μL of the culture medium in which the peptides were dispensed was added, and the plate was cultured in a CO2 incubator at 37° C. for 8 hours. Next, the culture was washed twice with PBS, and RNA was isolated from the culture using easy blue (iNtRON, Cat. No.: 17061, Korea). Next, using an RT kit (Enzynomics, Cat. NO.: RT200, Korea), the isolated RNA was reverse transcribed to synthesize the respective cDNA. […]"}, "MMP-1 [2]": {"tested_on": "MMP-1", "test": "MMP-1 expression increased by ultraviolet rays in NIH3T3 cells (western blot)", "settings": "6 J/cm^2 UV, 10 μM, 50 μM or 1000 μM peptide, 24 hours, FIG. 14", "source_text": "(§1) It has been reported that MMP-1 (matrix metalloproteinase-1) promotes the decomposition of collagen and the reduction of elastin in the dermis layer, thereby creating wrinkles and causing a decrease in elasticity in the skin. Accordingly, in this example, the aim was to confirm the effect of the peptide according to an embodiment on improving extrinsic skin aging, including improving wrinkles and increasing elasticity, etc., by evaluating the change in the expression level of MMP-1 increased by ultraviolet irradiation.\n(§2) Specifically, NIH3T3 cells or HaCaT cells were seeded in a 6-well plate at a density of 5×10^5 cells/well and cultured for 24 hours. Next, the cells were washed once with serum-free DMEM media, and 10 μM, 50 μM or 1000 μM of the peptide consisting of the amino acid sequence of SEQ ID NO: 1 was dispensed into 1 mL of the serum-free media, and cultured in a CO2 incubator at 37° C. for 1 hour. Next, the above culture was transferred to an e-tube, mixed with 1 ml of PBS, and dispensed into a well plate. Next, using a UV irradiator (VILBER LOURMAT, Cat No.: 3102-BSU, France), 6 J/cm^2 ultraviolet rays were irradiated to NIH3T3 cells, and 20 mJ/cm^2 ultraviolet rays were irradiated to HaCaT cells. […] Next, MMP-1 was detected using […]. […]"}, "MMP-1 [3]": {"tested_on": "MMP-1", "test": "MMP-1 expression increased by ultraviolet rays in HaCaT cells (western blot)", "settings": "20 mJ/cm^2 UV, 10 μM, 50 μM or 1000 μM peptide, 24 hours, FIG. 15", "source_text": "as §1, §2"}}}
{"substance": "GPRGDP [SEQ ID NO: 1]", "values": [{"measurement": "level of reactive oxygen species increased by ultraviolet irradiation", "setting": "[1]", "result": "reduced"}, {"measurement": "expression of SIRT-1 reduced by ultraviolet irradiation", "setting": "SIRT-1", "result": "increased or restored"}, {"measurement": "expression of MMP-1 increased by ultraviolet irradiation", "setting": "MMP-1 [2]", "result": "reduced or restored"}, {"measurement": "expression of MMP-1 increased by ultraviolet irradiation", "setting": "MMP-1 [3]", "result": "reduced or restored"}]}
